Source: US20150376225A1, “NOVEL COMPOUNDS OF 11BETA-HYDROXY-STEROIDS FOR USE IN MITOCHONDRIA BIOGENESIS AND DISEASES ASSOCIATED WITH MITOCHONDRIAL DYSFUNCTION OR DEPLETION” (SPHAERA PHARMA PVTD. LTD., priority 2013, published 2015)

These molecules were tested on AMPK (assay: AMPK activation, cell based ELISA in Hep G2 cells). Conditions: 1 h incubation, DMSO control as 100%.
Experimental: AMPK Activation Protocol:
AMPK activation potential of the compounds was evaluated using cell based ELISA.
Hepatoma (Hep G2) liver cells were maintained in a T 75 culture flask-containing 25 mM DMEM+10% fetal calf serum. The cells were maintained in a T 75 culture flask-containing medium (DMEM+10% fetal calf serum). On reaching a confluence of 70 to 80%, the cells were seeded in a 96 well plate at a density of 40,000 cells per well in 25 mM DMEM+10% FCS medium. The plates were then incubated at 37° C. with 5% CO2 for 24 hours. Various concentrations of drugs were prepared in DMSO and diluted to required concentration with the medium and incubated at 37° C. with 5% CO2 for 30 min and 1 h for Epicatechin analogs and 11-BHP analogs respectively. Metformin was used as positive control. Cells were fixed with 4% formaldehyde for 30 minutes at room temperature and washed three times with PBS containing 0.1% Triton X-100. Endogenous peroxidase was quenched with 1% H2O2 in PBS-T (0.1% Tween 20) for 30 minutes and washed three times in PBS-T. Cells were blocked with 1% BSA in PBS-T for 1 hour.

Going from CC(=O)[C@H]1CCC2C3CC=C4C[C@@H](O)CC[C@]4(C)C3[C@@H](O)C[C@@]21C (stereo partly drawn) [Compound 1016, 1-((3S,10R,11S,13S,17S)-3,11-dihydroxy-10,13-dimethyl-2,3,4,7,8,9,10,11,12,13,14,15,16,17-tetradecahydro-1H-cyclopenta[a]phenanthren-17-yl)ethan-1-one] to C[C@]12CC[C@H](O)CC1=CCC1C2[C@@H](O)C[C@@]2(C)C1CC[C@@H]2O (stereo partly drawn) [Compound 1017, (3S,10R,11S,13S,17S)-10,13-dimethyl-2,3,4,7,8,9,10,11,12,13,14,15,16,17-tetradecahydro-1H-cyclopenta[a]phenanthrene-3,11,17-triol], the “% activation pAMPK at 1 nM” value falls from 104% to 97%.

First: C[C@]12CCC(=O)C=C1CCC1C2[C@@H](O)C[C@@]2(C)C1CC[C@@H]2O (stereo partly drawn) [Compound 1018, (10R,11S,13S,17S)-11,17-dihydroxy-10,13-dimethyl-1,2,6,7,8,9,10,11,12,13,14,15,16,17-tetradecahydro-3H-cyclopenta[a]phenanthren-3-one]
Second: C[C@]12C[C@H](O)C3C(CCC4=CC(=O)CC[C@@]43C)C1CCC2C(=O)O (stereo partly drawn) [Compound 1020, (10R,11S,13S)-11-hydroxy-10,13-dimethyl-3-oxo-2,3,6,7,8,9,10,11,12,13,14,15,16,17-tetradecahydro-1H-cyclopenta[a]phenanthrene-17-carboxylic acid]
The “% activation pAMPK at 1 nM” value of the first is lower: 106% for the first, 132% for the second.

First: C[C@]12CCC(=O)C=C1CCC1C2[C@@H](O)C[C@]2(C)C(=O)CCC12 (stereo partly drawn) [Compound 1019, (10R,11S,13S)-11-hydroxy-10,13-dimethyl-1,6,7,8,9,10,11,12,13,14,15,16-dodecahydro-3H-cyclopenta[a]phenanthrene-3,17(2H)-dione]
Second: C[C@]12CCC(=O)C=C1CCC1C2[C@@H](O)C[C@]2(C)/C(=N/O)CCC12 (stereo partly drawn) [Compound 1024, (10R,11S,13S,E)-11-hydroxy-17-(hydroxyimino)-10,13-dimethyl-1,2,6,7,8,9,10,11,12,13,14,15,16,17-tetradecahydro-3H-cyclopenta[a]phenanthren-3-one]
The “% activation pAMPK at 1 nM” value of the first is lower: 103% for the first, 133% for the second.

Going from CC(O)C1CCC2C3CC=C4CC5(CC[C@]4(C)C3[C@@H](O)C[C@]12C)OCCO5 (stereo partly drawn) [Compound 1021, (10R,11S,13S)-17-(1-hydroxyethyl)-10,13-dimethyl-1,2,4,7,8,9,10,11,12,13,14,15,16,17-tetradecahydrospiro[cyclopenta[a]phenanthrene-3,2′-[1,3]dioxolan]-11-ol] to CC(=O)[C@H]1CCC2C3CCC4=CC(=O)CC[C@]4(C)C3[C@@H](O)C[C@@]21C (stereo partly drawn) [Compound 1025, (10R,11S,13S,17S)-17-acetyl-11-hydroxy-10,13-dimethyl-1,2,6,7,8,9,10,11,12,13,14,15,16,17-tetradecahydro-3H-cyclopenta[a]phenanthren-3-one], the “% activation pAMPK at 1 nM” value falls from 129% to 118%.

Compared with C[C@]12CC/C(=N/O)C=C1CCC1C2[C@@H](O)C[C@]2(C)/C(=N/O)CCC12 (stereo partly drawn) [Compound 1022, (3Z,10R,11S,13S,17E)-11-hydroxy-10,13-dimethyl-1,6,7,8,9,10,11,12,13,14,15,16-dodecahydro-3H-cyclopenta[a]phenanthrene-3,17(2H)-dione dioxime], C[C@]12CCC(=O)C=C1CCC1C2[C@@H](O)C[C@@]2(C)C1CC[C@]2(O)C(=O)O (stereo partly drawn) [Compound 1023, (10R,11S,13S,17R)-11,17-dihydroxy-10,13-dimethyl-3-oxo-2,3,6,7,8,9,10,11,12,13,14,15,16,17-tetradecahydro-1H-cyclopenta[a]phenanthrene-17-carboxylic acid] is lower in “% activation pAMPK at 1 nM” value: 129% for the first, 127% for the second.

In the case of C[C@]12CCC(=O)C=C1CCC1C2[C@@H](O)C[C@@]2(C)C1CC[C@@]21OCC1=O (stereo partly drawn) [Compound 1028, (10R,11S,13S,17R)-11-hydroxy-10,13-dimethyl-1,6,7,8,9,10,11,12,13,14,15,16-dodecahydrospiro[cyclopenta[a]phenanthrene-17,2′-oxetane]-3,3′(2H)-dione], the “% activation pAMPK at 1 nM” value is reported as 103%.
